Laboratory results published in ChEMBL document CHEMBL3886380, “Oxazole derivatives useful as modulators of FAAH” (2015).

Target: T1, Fatty-acid amide hydrolase 1 (Homo sapiens, UniProt O00519)
T1 sequence (O00519 whole entry): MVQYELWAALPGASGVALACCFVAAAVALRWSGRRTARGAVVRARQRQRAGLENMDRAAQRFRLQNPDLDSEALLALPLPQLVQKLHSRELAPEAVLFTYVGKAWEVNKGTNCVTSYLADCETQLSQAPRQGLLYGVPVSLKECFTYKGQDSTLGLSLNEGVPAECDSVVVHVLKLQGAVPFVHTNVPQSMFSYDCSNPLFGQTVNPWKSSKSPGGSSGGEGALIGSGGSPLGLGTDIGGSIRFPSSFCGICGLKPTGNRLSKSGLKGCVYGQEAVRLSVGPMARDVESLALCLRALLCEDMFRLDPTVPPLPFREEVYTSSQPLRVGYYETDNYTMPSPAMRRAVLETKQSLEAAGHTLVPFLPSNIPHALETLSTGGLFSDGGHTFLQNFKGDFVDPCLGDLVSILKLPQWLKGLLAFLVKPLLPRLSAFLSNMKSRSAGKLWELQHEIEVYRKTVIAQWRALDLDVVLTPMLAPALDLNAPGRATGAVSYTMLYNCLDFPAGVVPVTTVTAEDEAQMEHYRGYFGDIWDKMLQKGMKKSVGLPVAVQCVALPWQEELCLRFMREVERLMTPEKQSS
Assay: FAAH Assay: Enzyme activity was demonstrated in a radioenzymatic test based on measuring the product of hydrolysis (ethanolamine [3]H) of anandamide [ethanolamine 1-^3H] (American Radiolabeled Chemicals; 1 mCi/ml) with FAAH (Life Sciences (1995), 56, 1999-2005 and Journal of Pharmacology and Experimented Therapeutics (1997), 283, 729-734), Analytical. Biochemistry (2003), 318, 270-5. In …

Structure (SMILES)	IC50 [µM]
CN1CCN(CCOC(=O)N2CCC(c3nc(-c4ccc([S+](C)[O-])cc4)c(Sc4ccc(Cl)cn4)o3)CC2)CC1 (configuration not stated)	3.09
C[N+]1(C)CCN(c2ccc(-c3nc(C4CCOCC4)oc3Sc3ccc(Cl)cc3)cn2)CC1	9.15
